Results reported in PMC6411960, “Discovery of Novel Androgen Receptor Ligands by Structure-based Virtual Screening and Bioassays” (Genomics, Proteomics & Bioinformatics, 2019).
Read-outs that look alike come from different tables or passages of the source.

Assays:
[1] = target: T1, AR-LBD (Homo sapiens, UniProt P10275); experiment: PolarScreen AR competitor assay (fluorescence polarization); format: binding; conditions: competition with Flu-AR ligand; for EC50: gradient concentrations 0.1–100 µM, read-out: Binding EC50; for IC50: 0.1–100 µM, read-out: IC50, binding to AR-LBD
T1 sequence (P10275 669-900 limits assumed): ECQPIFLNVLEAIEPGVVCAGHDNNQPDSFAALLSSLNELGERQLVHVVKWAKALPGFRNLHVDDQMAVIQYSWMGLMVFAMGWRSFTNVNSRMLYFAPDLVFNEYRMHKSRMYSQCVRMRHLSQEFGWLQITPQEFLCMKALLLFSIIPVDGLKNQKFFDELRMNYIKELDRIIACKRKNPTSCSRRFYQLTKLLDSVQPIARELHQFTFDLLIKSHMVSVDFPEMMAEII

[2] = system: LNCaP cells; experiment: MTT cell proliferation assay, LNCaP; format: cell-based; conditions: for inhibition at 10 µM: Homo sapiens, LNCaP cell line, compound at 10 μM; for decrease in cell viability / change in cell viability: 30 µM, versus cells not treated; for change in cell viability: P = 0.0001; for effect on growth of LNCaP cells: various concentrations
Protocol: 3-(4,5-Dimethythiazol-2-yl)-2,5-diphenyl-2-H-tetrazolium bromid (MTT) colorimetric assay was utilized to evaluate cell proliferation, which can reflect the bioactivity and cytotoxicity of test compounds at cellular level. […] After incubation at 37 °C for 24 h, cells were treated with serial dilutions of indicated compounds (and 1 nM DHT for LNCaP culture) and incubated for another 3 days. Afterward, 10 μl of 5 mg/ml MTT solution was added into each well and further incubated for another 4 h. Then, 100 μl of triplex 10% SDS-0.1% HCl-PBS solutions were added to dissolve the formazan deposited on the bottom of the plates and the plates were then further retained in incubator overnight. The absorbance at 570 nm was measured with the reference wavelength at 650 nm with a spectrophotometer (Bioteck Eon, Winooski, VT).

[3] = system: C4-2 cells; experiment: MTT cell proliferation assay, C4-2; format: cell-based; conditions: for reduction of cell viability: C4-2, 30 µM, versus cells without treatment
Excerpt: We further tested C4-2, an androgen-independent AR^+ PCa cell line, which is more malignant than LNCaP. […] Given inhibitory effect was only observed at higher concentrations, it remains to be addressed whether the inhibition is attributed to AR blocking or the inherent toxicities of the tested compounds. We thus tested these compounds on DU145, an AR^− PCa cell line.
3-(4,5-Dimethythiazol-2-yl)-2,5-diphenyl-2-H-tetrazolium bromid (MTT) colorimetric assay was utilized to evaluate cell proliferation, which can reflect the bioactivity and cytotoxicity of test compounds at cellular level. PCa cells were cultured in 1640 RPMI media containing 5% charcoal-stripped serum (CSS) at a density of 5000 cells per well for LNCaP, 1000 cells per well for C4-2, and 2000 cells per well for DU145 in 96-well plates. After incubation at 37 °C for 24 h, cells were treated with serial dilutions of indicated compounds (and 1 nM DHT for LNCaP culture) and incubated for another 3 days. Afterward, 10 μl of 5 mg/ml MTT solution was added into each well and further incubated for another 4 h. Then, 100 μl of triplex 10% SDS-0.1% HCl-PBS solutions were added to dissolve the formazan deposited on the bottom of the plates and the plates were then further retained in incubator overnight. The absorbance at 570 nm was measured with the reference wavelength at 650 nm with a spectrophotometer (Bioteck Eon, Winooski, VT).

[4] = system: AR transcriptional activity; experiment: LNCaP-ARR2PB-eGFP transcriptional activity assay, antagonist mode (with DHT); format: cell-based; conditions: for effect on eGFP expression: 10 µM compound in the presence of 1 nM DHT, versus DHT control; for EC50: read-out: Antagonistic EC50
[5] = system: AR transcriptional activity; experiment: LNCaP-ARR2PB-eGFP transcriptional activity assay, agonist mode (without DHT); format: cell-based
Protocol: 1 nM DHT was added for background fluorescence. In addition, cells receiving equal volume of DMSO solution with (dark gray bar) or without (light gray bar) DHT served as controls too. […] C. […] The test concentrations range from 0.001 nM to 10 µM. DHT served as the positive control. Assays were performed in triplicate. Multiple group comparisons were analyzed with 1-way ANOVA (**, P < 0.05 were considered statistically significant).
The agonistic effects of the screened compounds were analyzed by stimulating the cell growth of LNCaP-ARR2PB-eGFP without prior addition of DHT. Cells were incubated with various concentrations of HBP1-3, HBP1-17, HBP1-38, and HBP1-51, respectively, ranging from 1 × 10^−3 nM to 1 × 10^4 nM (Figure 4C).
A cell line of LNCaP that stably expresses eGFP under the regulation of an androgen response element was generated to investigate the agonist/antagonist activity of the selected compounds as previously described, [34]. […] For lentiviral infection, LNCaP cells were plated and proliferated to a confluence of 60% before adding 5 ml of the collected lentivirus. Medium was refreshed 16 h later and cells were incubated for another two days. GFP expression in the transfected cell was examined with a fluorescent microscope. Subsequently, the infected cells were cultured in complete medium containing 1 μg/ml puromycin. This procedure was repeated for three cycles in the next subculture process to adequately eliminate the non-transfected clones. Cells surviving the screening process were AR-regulated eGFP-expressing LNCaP cells (LNCaP-ARR2PB-eGFP) and were cultured for subsequent antagonist/agonist assay.

[6] = without DHT, 1 × 10^−3 nM to 1 × 10^4 nM
[7] = LNCaP-ARR2PB-eGFP, in the presence of DHT

SMILES	EC50 [1] [µM]	inhibition at 10 µM [2] [%]	reduction of cell viability [3] [%]	effect on eGFP expression [4]	agonistic effect on eGFP expression [5, 6]	effect on growth of LNCaP cells ([2]; LNCaP)	also measured
O=C(CC1C(=O)NCCN1Cc1cccc2ccccc12)NCCn1ccc2ccccc21 (centres unmarked) [HBP1-17]	> 30	7.8 ± 4.1	10	did not show obvious effect on eGFP expression	did not cause notable change	–	decrease in cell viability ([2]; LNCaP): ≥ 20%
C[C@]12CCC(=O)C[C@@H]1CC[C@@H]1[C@@H]2CC[C@]2(C)[C@@H](O)CC[C@@H]12 [DHT, dihydrotestosterone, reference compound]	–	–	–	–	–	–	agonistic effect on eGFP expression [5]: upregulated eGFP expression in a dose-dependent manner
Nc1ccc2c(c1)C(=O)N(c1cccc3ccccc13)C2=O [HBP1-3]	> 30	7.8 ± 4.4	12	did not show obvious effect on eGFP expression	did not cause notable change	–	change in cell viability ([2]; LNCaP): significant decrease in cell viability
CNC(=O)c1ccc(N2C(=S)N(c3ccc(C#N)c(C(F)(F)F)c3)C(=O)C2(C)C)cc1F [Enz, enzalutamide, reference compound]	–	–	–	–	–	reduced the growth of LNCaP cells in a dose-dependent manner	–
COc1ccc(CC2(CCC(=O)NCCn3ccc4ccccc43)CCC(=O)N2)c2ccccc12 (centres unmarked) [HBP1-38]	> 30	18.6 ± 4.7	~40	promoted eGFP expression	did not cause notable change	–	inhibitory effect on LNCaP growth ([2]; LNCaP, 10 µM): inhibitory effect comparable to Bic; decrease in cell viability ([2]; LNCaP): ≥ 40%
CC(O)(CS(=O)(=O)c1ccc(F)cc1)C(=O)Nc1ccc(C#N)c(C(F)(F)F)c1 (centres unmarked) [Bic, bicalutamide, reference compound]	–	16.5 ± 1	–	–	–	reduced the growth of LNCaP cells in a dose-dependent manner	EC50 [4]: 0.69 ± 0.085 µM
Cc1ccccc1NCC(=O)N/N=C/c1ccc(-c2ccc(Cl)c(Cl)c2)o1 [HBP1-58]	4.92	2.2 ± 0.8	–	significantly reduced eGFP expression	–	–	IC50 [1]: 4.92 µM; change in cell viability ([2]; LNCaP): significant decrease in cell viability; EC50 [4, 7]: 3.25 ± 0.43 µM; IC50 ([4]; LNCaP-ARR2PB-eGFP, with DHT, read-out: IC50, antagonistic effect on AR transcriptional activity): 3.25 ± 0.43 µM
Cc1cc(O)nc2ccc(S(=O)(=O)Nc3ccc(O)cc3)cc12 [HBP1-51]	3.96	–	–	promoted eGFP expression	dose-dependent upregulation of GFP expression	did not show apparent inhibition tendency	IC50 [1]: 3.96 µM; maximum increase of cell viability ([3]; C4-2, all tested concentrations, versus untreated cells, not significant (P = 0.14)): below 20%; Antagonistic EC50 [4, 7]: Agonist
